Test results from paper PMC12787591 (Nutrients, 2025).

Molecular target: T1, α-amylase (α-salivary amylase)
T1 construct: gene AMY1A
Assay: enzyme inhibition assay with soluble starch and […],5-dinitrosalicylic acid
Type: biochemical, Homo sapiens

OC[C@H]1NC[C@H](O)[C@@H](O)[C@@H]1O [DNJ, 1-Deoxynojirimycin]
α-Amylase Experiment / IC50: 22.69 µg/mL
